From US9957264B2 (Merck Sharp & Dohme Corp., priority 2013, dated 2018) come the findings set out here.

What is called IC50 is the concentration that inhibits the measured activity by half.

In assay [1] the target is JAK1 (recombinant purified GST-tagged catalytic domain) (Homo sapiens (Human), UniProt P23458). Put plainly: Jak Biochemical HTRF Assay (JAK1). The note with it: [ATP] 31.8 μM. Put shortly: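 Compounds in DMSO were pre-equilibrated with enzyme and biotinylated peptide, then ATP was added and the reaction proceeded 120 min at room temperature. EDTA-based stop buffer with detection reagents was added, and after 60 min the time-resolved FRET ratio was read. IC50s came from 4-parameter dose–response fits.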
In general terms: TR-FRET usually uses a lanthanide donor and a delayed reading to cut background.

The target in assay [2] is JAK2 (recombinant purified GST-tagged catalytic domain) (Homo sapiens (Human), UniProt O60674). The experiment in a line: Jak Biochemical HTRF Assay (JAK2). To be noted: [ATP] 8.5 μM.

Each structure is given as a SMILES string.

JAK1 (recombinant purified GST-tagged catalytic domain), sequence (P23458 875-1153): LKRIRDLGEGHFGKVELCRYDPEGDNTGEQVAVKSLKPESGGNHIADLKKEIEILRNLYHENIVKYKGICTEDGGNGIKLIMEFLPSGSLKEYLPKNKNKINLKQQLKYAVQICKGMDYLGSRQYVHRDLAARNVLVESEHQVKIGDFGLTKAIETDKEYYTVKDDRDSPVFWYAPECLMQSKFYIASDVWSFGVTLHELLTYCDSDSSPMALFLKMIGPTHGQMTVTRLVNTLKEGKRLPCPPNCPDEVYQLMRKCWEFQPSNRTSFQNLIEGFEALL
JAK2 (recombinant purified GST-tagged catalytic domain), sequence (O60674 849-1124): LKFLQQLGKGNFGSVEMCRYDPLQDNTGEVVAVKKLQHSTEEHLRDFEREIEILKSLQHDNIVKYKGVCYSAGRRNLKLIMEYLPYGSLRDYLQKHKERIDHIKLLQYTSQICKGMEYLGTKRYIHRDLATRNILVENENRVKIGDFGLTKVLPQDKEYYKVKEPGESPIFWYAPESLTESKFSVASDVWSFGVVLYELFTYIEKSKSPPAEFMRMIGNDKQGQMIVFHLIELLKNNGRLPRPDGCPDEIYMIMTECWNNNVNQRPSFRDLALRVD

For the compound `CC1CN(S(=O)(=O)c2ccc(Nc3nn([C@]4(CC#N)CCCOC4)c4cc[nH]c(=O)c34)cc2)C1` [Example 5-106, {(3S)-3-[3-({4-[(3-methylazetidin-1-yl)sulfonyl]phenyl}amino)-4-oxo-4,5-dihydro-1H-pyrazolo[4,3-c]pyridin-1-yl]tetrahydro-2H-pyran-3-yl}acetonitrile], the concentration for half-maximal inhibition (IC50) came out at 0.39 nM in assay [1] and 0.99 nM in assay [2].
As to `N#CC[C@]1(n2nc(Nc3ccc([C@@]4(C(F)(F)F)CCCCN4)cc3)c3c(=O)[nH]ccc32)CCOC[C@H]1F` (single isomer, unassigned) [Example 5-264, 2-((3S,4S or 3R,4R)-3-fluoro-4-(4-oxo-3-((4-((R or S)-2-(trifluoromethyl)piperidin-2-yl)phenyl)amino)-4,5-dihydro-1H-pyrazolo[4,3-c]pyridin-1-yl)tetrahydro-2H-pyran-4-yl)acetonitrile], the concentration for half-maximal inhibition (IC50) came to 0.51 nM in assay [1] and 0.79 nM in assay [2].
The matching figures for `CCN(C(C)(C)C)S(=O)(=O)c1ccc(Nc2nn(C3(CC#N)CCCC3)c3cc[nH]c(=O)c23)cc1` [Example 5-135, N-(tert-butyl)-4-((1-(1-(cyanomethyl)cyclopentyl)-4-oxo-4,5-dihydro-1H-pyrazolo[4,3-c]pyridin-3-yl)amino)-N-ethylbenzene sulfonamide]: 0.98 nM and 1.53 nM.
The matching figures for `CC(C)(C)OC(=O)N1CC[C@](CC#N)(n2nc(Nc3ccc([C@@H](O)C(F)(F)F)cc3)c3c(=O)[nH]ccc32)[C@H](F)C1` (single isomer, unassigned) [Example 5-21, tert-butyl (3R,4R)-4-(cyanomethyl)-3-fluoro-4-[4-oxo-3-({4-[(1R or 1S)-2,2,2-trifluoro-1-hydroxyethyl]phenyl}amino)-4,5-dihydro-1H-pyrazolo[4,3-c]pyridin-1-yl]piperidine-1-carboxylate]: 0.15 nM and 0.14 nM.
The corresponding values for `CC(C)(C)OC(=O)N1CC[C@](CC#N)(n2nc(Nc3ccc4c(c3)CN(C(C)(C)C)S4(=O)=O)c3c(=O)[nH]ccc32)[C@H](F)C1` [Example 5-22, tert-butyl (3R,4R)-4-{3-[(2-tert-butyl-1,1-dioxido-2,3-dihydro-1,2-benzisothiazol-5-yl)amino]-4-oxo-4,5-dihydro-1H-pyrazolo [4,3-c]pyridin-1-yl}-4-(cyanomethyl)-3-fluoropiperidine-1-carboxylate] are 0.15 nM and 0.19 nM.
For `CN(C)S(=O)(=O)c1ccc(Nc2nn(C3(CC#N)CCN(C(=O)OCC(F)(F)F)CC3)c3cc[nH]c(=O)c23)cc1` [Example 12, 2,2,2-trifluoroethyl 4-(cyanomethyl)-4-(3-((4-(N,N-dimethylsulfamoyl)phenyl)amino)-4-oxo-4,5-dihydro-1H-pyrazolo[4,3-c]pyridin-1-yl)piperidine-1-carboxylate], the IC50 in assay [1] amounted to 0.11 nM; in assay [2], 0.24 nM.
The corresponding values for `CN(C)S(=O)(=O)c1ccc(Nc2nn(C3(CC#N)CCN(CCCc4ccccc4)CC3)c3cc[nH]c(=O)c23)cc1` [Example 8-15, 4-({1-[4-(cyanomethyl)-1-(3-phenylpropyl)piperidin-4-yl]-4-oxo-4,5-dihydro-1H-pyrazolo[4,3-c]pyridin-3-yl}amino)-N,N-dimethylbenzenesulfonamide] are 0.53 nM and 2.84 nM.
As to `CN(C)C(c1ccc(Nc2nn([C@]3(CC#N)CC[C@@H](C(=O)OC(C)(C)C)OC3)c3cc[nH]c(=O)c23)cc1)C(F)(F)F` (single isomer, unassigned) [Example 5-213, (2S,5S)-tert-butyl 5-(cyanomethyl)-5-(3-((4-((R or S)-1-(dimethylamino)-2,2,2-trifluoroethyl)phenyl)amino)-4-oxo-4,5-dihydro-1H-pyrazolo[4,3-c]pyridin-1-yl)tetrahydro-2H-pyran-2-carboxylate], the values for the IC50 in assay [1] and in assay [2] were 0.19 nM and 0.29 nM, respectively.
For the compound `N#CC[C@]1(n2nc(Nc3ccc([C@]4(C(F)(F)F)CCCCN4)cc3)c3c(=O)[nH]ccc32)CCOC[C@H]1F` (single isomer, unassigned) [Example 5-263, 2-((3S,4S or 3R,4R)-3-fluoro-4-(4-oxo-3-((4-((S or R)-2-(trifluoromethyl)piperidin-2-yl)phenyl)amino)-4,5-dihydro-1H-pyrazolo[4,3-c]pyridin-1-yl)tetrahydro-2H-pyran-4-yl)acetonitrile], the 50% inhibitory concentration (IC50) in assay [1] is 0.48 nM; in assay [2] it was 0.77 nM.
The matching figures for `C[C@H]1CN(c2ccc3cc(Nc4nn([C@]5(CC#N)CC[C@@H](C(=O)OC(C)(C)C)OC5)c5cc[nH]c(=O)c45)ccc3n2)CCO1` [Example 5-228, (2S,5S)-tert-butyl 5-(cyanomethyl)-5-(3-((2-((S)-2-methylmorpholino)quinolin-6-yl)amino)-4-oxo-4,5-dihydro-1H-pyrazolo[4,3-c]pyridin-1-yl)tetrahydro-2H-pyran-2-carboxylate]: 0.25 nM and 1.06 nM.
The matching figures for `N#CC[C@]1(n2nc(Nc3ccc(C(F)(F)F)cc3)c3c(=O)[nH]ccc32)CC[C@@H](Nc2ccccc2)CC1` [Example 18-3, Cis 2-(1-(4-oxo-3-((4-(trifluoromethyl)phenyl)amino)-4,5-dihydro-1H-pyrazolo[4,3-c]pyridin-1-yl)-4-(phenylamino)cyclohexyl)acetonitrile]: 41.1 nM and 1290 nM.
The corresponding values for `CN(C)S(=O)(=O)c1ccc(Nc2nn(C3(CC#N)CCCC3)c3cc[nH]c(=O)c23)cc1` [Example 5-123] are 0.23 nM and 0.46 nM.
For the compound `Cc1cc(Nc2nn(C3(CC#N)CCN(C(=O)OC(C)(C)C)CC3)c3cc[nH]c(=O)c23)ccc1C(=O)N1CCSCC1` [Example 21-14, tert-butyl-4-(cyanomethyl)-4-(3-(3-methyl-4-(thiomorpholine-4-carbonyl)phenylamino)-4-oxo-4,5-dihydropyrazolo[4,3-c]pyridin-1-yl)piperidine-1-carboxylate], the IC50 in assay [1] came out at 0.33 nM; in assay [2], 0.32 nM.
Turning to `CN(C)S(=O)(=O)c1ccc(Nc2nn(C3(CC#N)CCN(C(=O)OCC(C)(C)C)CC3)c3cc[nH]c(=O)c23)cc1` [Example 10-4, neopentyl 4-(cyanomethyl)-4-(3-((4-(N,N-dimethylsulfamoyl)phenyl)amino)-4-oxo-4,5-dihydro-1H-pyrazolo[4,3-c]pyridin-1-yl)piperidine-1-carboxylate], the values for the half-inhibitory concentration (IC50) in assay [1] and in assay [2] were 0.45 nM and 3.08 nM, respectively.
The matching figures for `N#CC[C@]1(n2nc(Nc3ccc(Cl)c(F)c3)c3c(=O)[nH]ccc32)CC[C@H](Nc2ccccc2)CC1` [Example 18-26, Trans 2-(1-(3-((4-chloro-3-fluorophenyl)amino)-4-oxo-4,5-dihydro-1H-pyrazolo[4,3-c]pyridin-1-yl)-4-(phenylamino)cyclohexyl)acetonitrile]: 2.48 nM and 54.7 nM.
The corresponding values for `CNS(=O)(=O)c1ccc(Nc2nn(C3(CC#N)CCCC3)c3cc[nH]c(=O)c23)cc1` [Example 5-131, 4-((1-(1-(cyanomethyl)cyclopentyl)-4-oxo-4,5-dihydro-1H-pyrazolo[4,3-c]pyridin-3-yl)amino)-N-methylbenzenesulfonamide] are 0.25 nM and 0.98 nM.
The matching figures for `CC(C)(C)OC(=O)[C@@H]1CC[C@@](CC#N)(n2nc(Nc3ccc(C(N)C(F)(F)F)cc3)c3c(=O)[nH]ccc32)CO1` (stereo partly drawn) [Example 5-104, (2S,5S)-tert-butyl 5-(3-((4-(1-amino-2,2,2-trifluoroethyl)phenyl)amino)-4-oxo-4,5-dihydro-1H-pyrazolo[4,3-c]pyridin-1-yl)-5-(cyanomethyl)tetrahydro-2H-pyran-2-carboxylate]: 0.07 nM and 0.27 nM.
As to `CC(C)(C)OC(=O)N1CCC(CC#N)(n2nc(Nc3ccc([C@H](O)C(F)(F)F)cc3)c3c(=O)[nH]ccc32)CC1` (single isomer, unassigned) [Example 5-2, tert-butyl 4-(cyanomethyl)-4-[4-oxo-3-({4-[(1S or 1R)-2,2,2-trifluoro-1-hydroxyethyl]phenyl}amino)-4,5-dihydro-1H-pyrazolo[4,3-c]pyridin-1-yl]piperidine-1-carboxylate], the IC50 in assay [1] was 0.21 nM; in assay [2] it was 0.44 nM.
Take `CC(C)(C)OC(=O)N1CCC(CC#N)(n2nc(Nc3ccc([C@]4(C(F)(F)F)CCCN4)cc3)c3c(=O)[nH]ccc32)CC1` (single isomer, unassigned) [Example 21-19, (S or R)-tert-butyl 4-(cyanomethyl)-4-(4-oxo-3-(4-(2-(trifluoromethyl)pyrrolidin-2-yl)phenylamino)-4,5-dihydropyrazolo[4,3-c]pyridin-1-yl)piperidine-1-carboxylate]: the half-maximal inhibitory concentration (IC50) in assay [1] came to 0.45 nM; in assay [2] it was 0.5 nM.
Consider `CC(C)(C)NC(c1ccc(Nc2nn([C@]3(CC#N)CC[C@@H](C(=O)OC(C)(C)C)OC3)c3cc[nH]c(=O)c23)cc1)C(F)(F)F` (single isomer, unassigned) [Example 5-195, (2S,5S)-tert-butyl 5-(3-((4-((R or S)-1-(tert-butylamino)-2,2,2-trifluoroethyl)phenyl)amino)-4-oxo-4,5-dihydro-1H-pyrazolo [4,3-c]pyridin-1-yl)-5-(cyanomethyl)tetrahydro-2H-pyran-2-carboxylate], for which the IC50 came out at 0.56 nM in assay [1] and 0.68 nM in assay [2].
The matching figures for `CC1(C)CCCC1S(=O)(=O)c1ccc(Nc2nn([C@]3(CC#N)CCCOC3)c3cc[nH]c(=O)c23)cc1` (stereo partly drawn) [Example 5-202, {(3S)-3-[3-({4-[(2,2-dimethylcyclopentyl)sulfonyl]phenyl}amino)-4-oxo-4,5-dihydro-1H-pyrazolo[4,3-c]pyridin-1-yl]tetrahydro-2H-pyran-3-yl}acetonitrile]: 0.39 nM and 1.2 nM.
